# Where two headings read alike, the source gives them in different places. No end group written: not given here.
# What was measured:
# [1] = test system: Candida albicans ATCC 10231; assay: Antimicrobial assay I, modified protocol (tryptic soy broth), MFC; conditions: minimum fungicidal concentration, Table 4
# [2] = test system: Escherichia coli ATCC 25922; assay: Antimicrobial assay I, modified protocol (tryptic soy broth), MBC; conditions: minimum bactericidal concentration, Table 4
# Description: (§3) The preparation of all media, stock solutions, and dilutions took place in a laminar flow hood to prevent contamination. Bacterial cells were freshly grown on antibiotic medium 2 agar slants (pH 7.0 at 25° C.). Bacteria were suspended and diluted in antibiotic medium 3 to about 10^4 cfu/ml and used as the inoculum. Sample solutions (100 μl/well) were added to plates according to the plate layout. Inoculum (100 μl/well) was added to achieve a final concentration of 5×10^3 cfu/ml. Negative controls received 100 μl saline and 100 μl growth medium. Positive controls received 100 μl saline and 100 μl inoculum. Bacterial plates were incubated at 37° C. for 24 hours.
# (§4) However, the data for Table 4 were obtained with a modified protocol wherein the medium was tryptic soy broth, inocolum strength was approximately 10^4 CFU per ml, and values determined were minimum bactericidal concentrations (MBC) or minimum fungicidal concentrations (MFC).
# (§5) MBC or MFC values are in μg/mL. E. coli is Escherichia coli ATCC accession number 25922; P. aerug is Pseudomonas aeruginosa ATCC accession number 27853, S. aur. is Stapholococcus aureus ATCC accession number 25923; Candida is Candida albicans ATCC accession number 10231.
# [3] = test system: Pseudomonas aeruginosa ATCC 27853; assay: as above; conditions: minimum bactericidal concentration, Table 4
# [4] = test system: Stapholococcus aureus ATCC 25923; assay: as above; conditions: minimum bactericidal concentration, Table 4
# Description: as §3, §4, §5
# fungal = assay: Presently preferred antifungal peptides, selected from the MIC/MBC data; type: cell-based; conditions: X = preferred
# Description: The peptide's “length” is the number of amino acid residues in the sequence.
# [5] = test system: Staphylococcus aureus ATCC 6538; assay: Antimicrobial assay I, MIC by OD measurement; type: cell-based; conditions: 37° C. for 24 hours, absorbance 620 nm
# [6] = test system: Pseudomonas aeruginosa ATCC 9027; assay: Antimicrobial assay I, MIC by OD measurement; type: cell-based; conditions: 37° C. for 24 hours, absorbance 620 nm
# P. acne ATCC 6919 = assay: Antimicrobial assays II, NCCLS broth microdilution MIC; type: cell-based, Propionibacterium acnes; conditions: mean of three, in µg/mL
# HeLaS3 = assay: Anti-cancer assay, MTT, LD50; type: cell-based; conditions: 24 hours with peptide, cervical carcinoma
# Description: (§1) Numbers are LD50 values (μg/mL).
# BMKC = assay: Anti-cancer assay, MTT, LD50; type: cell-based; conditions: BMKC cloned melanoma line, 24 hours with peptide
# Description: as §1
# MCF7 = assay: Anti-cancer assay, MTT, LD50; type: cell-based; conditions: MCF7 breast adenocarcinoma line, MTT, 24 hours with peptide
# Description: as §1
# H1299 = assay: Anti-cancer assay, MTT, LD50; type: cell-based; conditions: 24 hours with peptide, lung large cell carcinoma
# Description: as §1
# PC3 = assay: Anti-cancer assay, MTT, LD50; type: cell-based; conditions: 24 hours with peptide, prostate adenocarcinoma
# Description: as §1
# SW480 = assay: Anti-cancer assay, MTT, LD50; type: cell-based; conditions: SW480 colon adenocarcinoma line, 24 hours with peptide
# Description: as §1
# S. pneumoniae C718 = assay: Antimicrobial assays II, NCCLS broth microdilution MIC; type: cell-based, Streptococcus pneumoniae; conditions: mean of three
# S. pyogenes ATCC19615 = assay: as above; type: cell-based, Streptococcus pyogenes; conditions: mean of three, in µg/mL
# S. aureus (MRSA) = type: cell-based, Staphylococcus aureus; conditions: mean of three; 16 to 20 hours at 35° C.
# [7] = test system: human red blood cells (RBC); assay: in vitro; type: cell-based; conditions: hemolytic assay, concentration at 50% hemolysis, 1 hour at 37° C.
# S. epidermidis C621 = type: cell-based, Staphylococcus epidermidis; conditions: mean of three; 16 to 20 hours at 35° C.
# S. pneumoniae C719 = assay: Antimicrobial assays II, NCCLS broth microdilution MIC; type: cell-based, Streptococcus pneumoniae; conditions: mean of three, in µg/mL
# P. aeruginosa H774 = type: cell-based, Pseudomonas aeruginosa; conditions: P. aeruginosa H744; nalidixic acid + peptide at ¼ MIC; 0.5 or less = synergy
# In short: (§2)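 FIC index, computed as 0.25 plus the ratio of combination to single-agent antibiotic MIC, defines synergy when 0.5 or below. Peptide fixed at one quarter MIC while chloramphenicol or nalidixic acid was serially diluted two-fold; antibiotic-alone MICs served as baselines.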
# P. aeruginosa = type: cell-based, Pseudomonas aeruginosa; conditions: P. aeruginosa H744; MIC of nalidixic acid with peptide at ¼ MIC
# In short: as §2
# P. aeruginosa H374 = type: cell-based, Pseudomonas aeruginosa; conditions: for FIC Index: 0.5 or less = synergy
# In short: as §2
# S. pyogenes M76 = assay: Antimicrobial assays II, NCCLS broth microdilution MIC; type: cell-based, Streptococcus pyogenes; conditions: mean of three; 16 to 20 hours at 35° C.
# WI38 = conditions: MTT, 24 hours with peptide
# Description: (§6) Viability of cells is determined by the dye response. In the following procedure, approximately 1.5×10^4 cells per well were added and viability was determined with the cells in a semi-confluent state. The assay was performed in a 96-well microtiter plate. After addition of peptide, the plate was set for 24 hours. MTT (5 mg/ml in phenol red-free RPMI-1640, 20 μl) was added to each well including positive control wells untreated with peptide. The plate was incubated at 37° C. for 4 hours. The liquid contents of each well was removed, and isopropanol with 0.1 M HCl (100 μl) was added to each well. The plate was sealed with parafilm to prevent evaporation of the isopropanol. The plate is allowed to rest for 5-10 minutes in order to solubilize the precipitate. Purified water (100 μl) was added to each well. Absorbance was determined with an ELISA Reader instrument. Color intensity at 540 nm is proportional to viability of cells.
# (§7) WI38 (ATCC No. CCL75) is a normal fibroblast line of lung diploid cells, MCF7 (ATCC No. HTB22) is a breast adenocarcinoma tumor cell line, SW480 (ATCC No. CCL228) is a colon adenocarcinoma tumor cell line, BMKC is a cloned melanoma line derived from Bowes melanoma line HMCB (ATCC No. CRL9607), H1299 (ATCC No. CRL5803) is a lung large cell carcinoma tumor line, HeLaS3 (ATCC No. CCL2.2) is a cervical epitheleal carcinoma tumor cell line, and PC3 (ATCC No. CRL1435) is a prostate adenocarcinoma tumor cell line.
# [8] = test system: yeast (Saccharomyces cerevisiae); assay: Antimicrobial assay I, yeast assay in RPMI 1640; type: cell-based; conditions: RPMI 1640 media
# in vitro [9] = type: cell-based, human; conditions: human, human red blood cells, pH 7, Table 26, valine substitution; read-out: Hemolysis RBC LD50
# in vitro [10] = conditions: human, WI38 normal lung fibroblast cells, WI-38 LD50, Table 26, valine substitution
# Description: as §6, §7
compound,measurement,setting,value
FALALKALKKAL-NH2 [compound 144],MFC Candida A.10231,[1],25 mg/L
same,MBC E. coli A.25922,[2],10 mg/L
same,MBC P. aerug A.27853,[3],25 mg/L
same,MBC S. aur A.25923,[4],25 mg/L
same,Anti-fungal (preferred peptide),fungal,X (Preferred antifungal peptides can be selected as having MIC or MBC values of less than or equal to about 25 μg/ml)
FAKLLAKALKKFL-NH2 [compound 118],MBC E. coli A.25922,[2],8 mg/L
same,MBC P. aerug A.27853,[3],25 mg/L
same,Anti-fungal (preferred peptide),fungal,X (Preferred antifungal peptides can be selected as having MIC or MBC values of less than or equal to about 25 μg/ml)
FALALKAKKL-NH2 [compound 182],Anti-fungal (preferred peptide),fungal,X (Preferred antifungal peptides can be selected as having MIC or MBC values of less than or equal to about 25 μg/ml)
FAKLAKKLL-NH2 [P60],staph6538 (MIC),[5],200 mg/L
same,paerug9027 (MIC),[6],100 mg/L
same,P. acne MIC,P. acne ATCC 6919,4
same,HeLaS3 LD50,HeLaS3,> (> indicates greater than 1000)
same,LD50 BMKC,BMKC,> (> indicates greater than 1000)
same,LD50 MCF7,MCF7,> (> indicates greater than 1000)
same,H1299 LD50,H1299,> (> indicates greater than 1000)
same,PC3 LD50,PC3,> (> indicates greater than 1000)
same,LD50 SW480,SW480,> (> indicates greater than 1000)
same,S. pneumoniae MIC,S. pneumoniae C718,128 mg/L
same,S. pyogenes MIC,S. pyogenes ATCC19615,8
same,S. aureus (MRSA) MIC,S. aureus (MRSA),32 mg/L
same,LD50,[7],> (> indicates greater than 1000)
same,S. epidermidis C621 MIC,S. epidermidis C621,4 mg/L
same,S. pneumoniae MIC,S. pneumoniae C719,>128
same,FIC Index,P. aeruginosa H774,1.25
same,MIC Nal-comb.,P. aeruginosa,624 mg/L
same,MIC Cm-comb.,P. aeruginosa H374; MIC of chloramphenicol with peptide at ¼ MIC,4 mg/L
same,MIC Nal-comb.,P. aeruginosa H374; MIC of nalidixic acid with peptide at ¼ MIC,1250 mg/L
same,FIC Index,P. aeruginosa H374; chloramphenicol + peptide at ¼ MIC,0.5
same,FIC Index,"P. aeruginosa H374; nalidixic acid + peptide at ¼ MIC, FIC=0.25+MIC comb/MIC alone",0.5
same,S. pyogenes M76 MIC,S. pyogenes M76,8 mg/L
same,WI38 LD50,WI38; normal fibroblast line,> (> indicates greater than 1000)
same,LD50 WI38,WI38; WI38 normal lung fibroblast line,> (> indicates greater than 1000)
same,yeast (MIC or MFC),[8],200 mg/L
FAKLLALALKKAL-NH2 [compound 97],MFC Candida A.10231,[1],25 mg/L
same,MBC E. coli A.25922,[2],25 mg/L
same,MBC P. aerug A.27853,[3],>50 mg/L
same,MBC S. aur A.25923,[4],25 mg/L
same,Anti-fungal (preferred peptide),fungal,X (Preferred antifungal peptides can be selected as having MIC or MBC values of less than or equal to about 25 μg/ml)
FALALKALKKLKKALKKAL-NH2 [compound 27],MFC Candida A.10231,[1],>50 mg/L
same,MBC E. coli A.25922,[2],10 mg/L
same,MBC P. aerug A.27853,[3],8 mg/L
same,MBC S. aur A.25923,[4],8 mg/L
same,Anti-fungal (preferred peptide),fungal,X (Preferred antifungal peptides can be selected as having MIC or MBC values of less than or equal to about 25 μg/ml)
FALALKLAKKAL-NH2 [compound 167],MFC Candida A.10231,[1],25 mg/L
same,MBC E. coli A.25922,[2],25 mg/L
same,MBC P. aerug A.27853,[3],>250 mg/L
same,MBC S. aur A.25923,[4],10 mg/L
same,Anti-fungal (preferred peptide),fungal,X (Preferred antifungal peptides can be selected as having MIC or MBC values of less than or equal to about 25 μg/ml)
FALKALKKAL-NH2 [compound 170],MFC Candida A.10231,[1],25 mg/L
same,MBC E. coli A.25922,[2],25 mg/L
same,MBC P. aerug A.27853,[3],>250 mg/L
same,MBC S. aur A.25923,[4],150 mg/L
same,Anti-fungal (preferred peptide),fungal,X (Preferred antifungal peptides can be selected as having MIC or MBC values of less than or equal to about 25 μg/ml)
KYKKALKKLAKLL-NH2 [compound 146],MFC Candida A.10231,[1],10 mg/L
same,MBC E. coli A.25922,[2],10 mg/L
same,MBC P. aerug A.27853,[3],>250 mg/L
same,MBC S. aur A.25923,[4],75 mg/L
same,Anti-fungal (preferred peptide),fungal,X (Preferred antifungal peptides can be selected as having MIC or MBC values of less than or equal to about 25 μg/ml)
VALALKALKKLLKKLKKLAKKAL-NH2 [compound 510],HC50 at 1 h,in vitro [9],10 µg/mL
same,CC50 at 24 h,in vitro [10],77 mg/L
same,Anti-fungal (preferred peptide),fungal,X (Preferred antifungal peptides can be selected as having MIC or MBC values of less than or equal to about 25 μg/ml)
CC(C)C[C@H](NC(=O)[C@H](C)NC(=O)[C@H](CCCCN)NC(=O)[C@H](CC(C)C)NC(=O)[C@H](C)NC(=O)[C@H](CC(C)C)NC(=O)[C@H](C)NC(=O)[C@H](CC(C)C)NC(=O)[C@H](CCCCN)NC(=O)[C@H](C)NC(=O)[C@H](CC(C)C)NC(=O)[C@H](CCCCN)NC(=O)[C@H](CCCCN)NC(=O)[C@H](C)NC(=O)[C@H](CC(C)C)NC(=O)[C@H](CCCCN)NC(=O)[C@H](CCCCN)NC(=O)[C@H](CC(C)C)NC(=O)[C@H](CCCCN)NC(=O)[C@H](CCCCN)NC(=O)[C@H](C)NC(=O)[C@H](CC(C)C)NC(=O)[C@H](CCCCN)NC(=O)[C@H](CCCCN)NC(=O)[C@H](C)NC(=O)[C@@H](N)Cc1ccccc1)C(=O)N[C@@H](C)C(=O)N[C@@H](CC(C)C)C(=O)N[C@@H](CCCCN)C(=O)N[C@@H](C)C(=O)O [compound 100],Anti-fungal (preferred peptide),fungal,X (Preferred antifungal peptides can be selected as having MIC or MBC values of less than or equal to about 25 μg/ml)
FALKALKKLKKALKKAL-NH2 [compound 153],MFC Candida A.10231,[1],25 mg/L
same,MBC E. coli A.25922,[2],10 mg/L
same,MBC P. aerug A.27853,[3],25 mg/L
same,MBC S. aur A.25923,[4],5 mg/L
same,Anti-fungal (preferred peptide),fungal,X (Preferred antifungal peptides can be selected as having MIC or MBC values of less than or equal to about 25 μg/ml)
FKLAFKLAKKAFL-NH2 [compound 122],MFC Candida A.10231,[1],15 mg/L
same,MBC E. coli A.25922,[2],30 mg/L
same,MBC P. aerug A.27853,[3],30 mg/L
same,MBC S. aur A.25923,[4],25 mg/L
same,Anti-fungal (preferred peptide),fungal,X (Preferred antifungal peptides can be selected as having MIC or MBC values of less than or equal to about 25 μg/ml)
FAKLLAKLAK-NH2 [compound 123],MFC Candida A.10231,[1],25 mg/L
same,MBC E. coli A.25922,[2],40 mg/L
same,MBC P. aerug A.27853,[3],INACT
same,MBC S. aur A.25923,[4],INACT
same,Anti-fungal (preferred peptide),fungal,X (Preferred antifungal peptides can be selected as having MIC or MBC values of less than or equal to about 25 μg/ml)
FAKKLAKKLAKAL-NH2 [compound 74],MFC Candida A.10231,[1],>55 mg/L
same,MBC E. coli A.25922,[2],>55 mg/L
same,MBC P. aerug A.27853,[3],50 mg/L
same,MBC S. aur A.25923,[4],>55 mg/L
same,Anti-fungal (preferred peptide),fungal,X (Preferred antifungal peptides can be selected as having MIC or MBC values of less than or equal to about 25 μg/ml)
FAKLLAKALKKL-NH2 [compound 103],MFC Candida A.10231,[1],25 mg/L
same,MBC E. coli A.25922,[2],30 mg/L
same,MBC P. aerug A.27853,[3],30 mg/L
same,MBC S. aur A.25923,[4],>50 mg/L
same,Anti-fungal (preferred peptide),fungal,X (Preferred antifungal peptides can be selected as having MIC or MBC values of less than or equal to about 25 μg/ml)
FAKLLAKALKKAL-NH2 [compound 102],MFC Candida A.10231,[1],15 mg/L
same,MBC E. coli A.25922,[2],25 mg/L
same,MBC P. aerug A.27853,[3],30 mg/L
same,MBC S. aur A.25923,[4],25 mg/L
same,Anti-fungal (preferred peptide),fungal,X (Preferred antifungal peptides can be selected as having MIC or MBC values of less than or equal to about 25 μg/ml)
